Measurements as given in patent US8354522B2, “Immunostimulatory oligoribonucleotides” (Coley Pharmaceutical GmbH, priority 2005, dated 2013).

Columns and labels:
[1] = tested on: isolated monocytes and mDC; assay: TNF-alpha and IL-12p40 production upon isolated monocytes and mDC stimulation; type: cell-based, human; settings: 0.5 μM ORN complexed to 10 μg/ml DOTAP, 16 h
Procedure: FIG. 2 is a set of bar graphs depicting ORN induced cytokine production upon isolated pDC (FIG. 2a), monocytes (FIG. 2b) and mDC (FIG. 2c) stimulation. Cells were stimulated with 0.5 μM ORN complexed to 10 μg/ml DOTAP, 0.5 μM CpG ODN or DOTAP or media alone and IFN-alpha (FIG. 2a), TNF-alpha […] and IL-12p40 (FIG. 2c) were measured.
A similar assay testing different ORN sequences was performed using isolated pDC, monocytes and mDC stimulation. Cells were stimulated with 0.5 μM ORN complexed to 10 μg/ml DOTAP, 0.5 μM CpG ODN or DOTAP or media alone. After 16 h the supernatants were harvested and IFN-alpha, TNF-alpha and IL-12p40 levels were measured by ELISA.

[2] = tested on: CD123+ purified pDC; assay: CD86 surface marker expression upon human pDC stimulation (FACS); type: cell-based; settings: 1 μM ORN complexed to 25 μg/ml DOTAP, 16 h
Procedure: (§1) FIG. 10 is a series of graphs showing surface marker expression upon human pDC stimulation with AU-rich or GU-rich ORN. CD123+ purified pDC (FIGS. 10a and 10b) or isolated monocytes (FIG. 10c) were incubated with 1 μM ORN complexed to 25 μg/ml DOTAP or DOTAP alone (FIG. 10a) or indicated amounts of ORN complexed to DOTAP or DOTAP alone (FIGS. 10b-10c). After 16 h cells were harvested and stained with CD123, CD11c and HLA-DR antibodies (FIGS. 10a and 10b) or CD14 and CD19 (FIG. 10c). Cell surface marker activation was measured by CD86 (FIGS. 10a and 10b) or CD80 (FIG. 10c) expression. […] FIG. 10b is a graph illustrating that CD86 surface marker expression upon human pDC stimulation is dose-dependent.
(§2) CD123+ purified pDC (FIGS. 10a and 10b) or isolated monocytes (FIG. 10c) were incubated with 1 μM ORN complexed to 25 μg/ml DOTAP or DOTAP alone (FIG. 10a) or indicated amounts of ORN complexed to DOTAP or DOTAP alone (FIGS. 10b-10c). After 16 h cells were harvested and stained with CD123, CD11c and HLA-DR antibodies (FIGS. 10a and 10b) or CD14 and CD19 (FIG. 10c). […] This activation was determined to be dose-dependent (FIG. 10b).

[3] = tested on: Human PBMC; assay: Cytokine production upon human PBMC stimulation (ORN complexed to DOTAP, 16 h, ELISA); type: cell-based; design: key to IFN-alpha / TNF-alpha: +: cytokine production; −: no cytokine production; settings: for IFN-alpha / TNF-alpha: human PBMC stimulated for 16 h, supernatant ELISA
How it was run: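 Healthy-donor PBMCs were stimulated for 16 h with ORN complexed to DOTAP (25 μg/ml), titrated in 7 steps of 1/3 from 2 μM (to 0.9 nM). IFN-alpha and TNF-alpha in supernatants were measured by ELISA. Mean/max activity at 0.6 μM and EC50 came from 3-6 donors over two experiments.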

[4] = tested on: CD14-positive cell; assay: CD80 surface marker expression upon CD14-positive cell stimulation (FACS); type: cell-based; settings: human PBMC (data not shown) and CD14-positive cells, ORN complexed to DOTAP, 16 h
Procedure: as §1, §2

[5] = tested on: Splenocytes from 3 Sprague-Dawley rats; assay: TNF-alpha production by rat splenocytes (ELISA); type: cell-based; settings: pooled rat splenocytes, ORN complexed to 62.5 μg/ml DOTAP with 1/5 dilution, 20 hours
Procedure: Splenocytes from 3 Sprague-Dawley rats were pooled and stimulated with indicated concentrations of SEQ ID NO:21, SEQ ID NO:13 (both complexed to 62.5 μg/ml DOTAP with 1/5 dilution), R-848 or DOTAP alone (62.5 μg/ml->1/5 dilution). Supernatants were harvested after 20 hours and TNF-alpha levels were measured by ELISA.

| Substance | IL-12p40 production (in words) [1] | TNF-alpha production (in words) [1] | CD86 surface marker expression [2] | IFN-alpha [3] | TNF-alpha [3] | CD80 surface marker expression [4] | TNF-alpha production [5] | IFN-alpha production upon PBMC stimulation (in words) ([3]; human PBMC) |
| --- | --- | --- | --- | --- | --- | --- | --- | --- |
| U*U*G*U*U*G*U*U*G*U*U*G*U*U*G*U*U*G*U*U (UUGUUGUUGUUGUUGUUGUU; listed as RNA, chemistry not fully specified) [SEQ ID NO: 21] | clear TNF-alpha and IL-12p40 production | clear TNF-alpha and IL-12p40 production | significant CD86 activation | + | + | no difference in CD80 surface marker expression | resulted in TNF-alpha production |  |
| U*U*A*U*U*A*U*U*A*U*U*A*U*U*A*U*U*A*U*U (UUAUUAUUAUUAUUAUUAUU; chemistry not fully specified) [SEQ ID NO: 13] | clear TNF-alpha and IL-12p40 production | clear TNF-alpha and IL-12p40 production | very little CD86 activation | − | + | no difference in CD80 surface marker expression | no TNF-alpha production | no IFN-alpha cytokine production |
